Laboratory results reported in US11725037B2, “Peptide dual agonists of GIPR and GLP2R” (University of Copenhagen, priority 2017, dated 2023).
Like-named read-outs stand apart in the source and are kept apart here. Ends that are not written are not given here.

Assays:
[1] = target: T1, human GIP receptor (Homo sapiens, UniProt P48546); test: cAMP accumulation assay (HitHunter cAMP XS) in transiently transfected COS-7 cells expressing the human GIP receptor; format: cell-based; conditions: for Emax at 10 µM: COS-7, read-out: Emax (10 μM), GIP receptor; for fold (fold change of native GIP), GIP receptor: EC50 relative to native GIP; for Emax at 1 µM: COS-7, read-out: Emax, GIP receptor
T1 construct: host or cells: COS-7 (transient, calcium phosphate; pCMV-Script vector)
T1 sequence (P48546 22-466): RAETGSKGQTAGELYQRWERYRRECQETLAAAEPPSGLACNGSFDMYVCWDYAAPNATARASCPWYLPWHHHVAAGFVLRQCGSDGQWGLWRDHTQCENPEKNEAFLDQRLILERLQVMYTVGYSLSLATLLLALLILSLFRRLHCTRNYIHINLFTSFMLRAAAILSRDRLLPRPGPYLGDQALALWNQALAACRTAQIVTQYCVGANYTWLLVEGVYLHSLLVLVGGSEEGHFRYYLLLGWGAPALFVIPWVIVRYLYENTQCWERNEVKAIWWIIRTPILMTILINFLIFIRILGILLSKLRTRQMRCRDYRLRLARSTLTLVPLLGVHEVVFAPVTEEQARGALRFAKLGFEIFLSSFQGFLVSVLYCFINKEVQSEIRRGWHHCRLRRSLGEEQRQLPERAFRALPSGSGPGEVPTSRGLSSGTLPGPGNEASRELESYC
Experimental: (§1) The day after, the cells were washed twice with Hepes buffered saline (HBS) buffer and incubated with HBS and 1 mM 3-isobutyl-1-methylxanthine (IBMX) for 30 min at 37° C. Ligands were added and incubated for 30 min at 37° C. The HitHunter™ cAMP XS assay (DiscoveRx) was carried out according to the manufacturer's instructions.

[2] = target: T2, human GLP-2 receptor (Homo sapiens, UniProt O95838); test: cAMP accumulation assay (HitHunter cAMP XS) in transiently transfected COS-7 cells expressing the human GLP-2 receptor; format: cell-based; conditions: for Emax at 10 µM: COS-7, read-out: Emax (10 μM), GLP-2 receptor; for fold (fold change of native GLP-2), GLP-2 receptor: EC50 relative to native GLP-2; for Emax at 1 µM: COS-7, read-out: Emax, GLP-2 receptor
T2 construct: host or cells: COS-7 (transient, calcium phosphate; pCMV-Script vector)
T2 sequence (O95838 1-553): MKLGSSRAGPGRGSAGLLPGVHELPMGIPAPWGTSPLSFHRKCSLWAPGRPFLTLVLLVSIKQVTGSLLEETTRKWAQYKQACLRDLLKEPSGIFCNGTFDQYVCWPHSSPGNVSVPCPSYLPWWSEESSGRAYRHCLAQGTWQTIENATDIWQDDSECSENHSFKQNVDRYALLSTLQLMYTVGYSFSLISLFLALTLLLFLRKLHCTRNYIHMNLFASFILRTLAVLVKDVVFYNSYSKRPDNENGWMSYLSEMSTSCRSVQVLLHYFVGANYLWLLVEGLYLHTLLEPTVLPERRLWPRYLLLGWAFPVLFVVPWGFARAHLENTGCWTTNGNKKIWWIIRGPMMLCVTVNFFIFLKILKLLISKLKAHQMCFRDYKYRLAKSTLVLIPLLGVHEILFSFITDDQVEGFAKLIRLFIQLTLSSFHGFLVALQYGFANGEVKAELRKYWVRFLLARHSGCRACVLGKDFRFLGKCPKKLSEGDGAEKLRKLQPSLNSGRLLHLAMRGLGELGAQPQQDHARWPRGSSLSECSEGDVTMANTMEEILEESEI
Experimental: as §1

[3] = logEC50, GLP-2 receptor, Table 2, cAMP, COS-7
[4] = logEC50, GIP receptor, Table 1, log value, cAMP, COS-7
[5] = logEC50, GLP-2 receptor, Table 1, cAMP, COS-7
[6] = logEC50, GIP receptor, Table 2, log value, cAMP, COS-7
[7] = EC50(nM), GLP-2 receptor, Table 1, cAMP, COS-7

Row | Compound | Emax at 10 µM [1] [%] | Emax at 10 µM [2] [%] | fold (fold change of native GIP), GIP receptor ([1]; Table 1) [fold] | fold (fold change of native GLP-2), GLP-2 receptor ([2]; Table 1) [fold] | further results
1 | CCCCCCCCCCCCCCCC(=O)NCCCC[C@H](NC(=O)CNC(=O)[C@H](CCCCN)NC(=O)[C@@H](NC(=O)[C@H](CCC(N)=O)NC(=O)[C@@H](NC(=O)[C@H](CC(C)C)NC(=O)[C@H](Cc1c[nH]c2ccccc12)NC(=O)[C@H](CC(N)=O)NC(=O)[C@@H](NC(=O)[C@H](Cc1ccccc1)NC(=O)[C@H](CC(=O)O)NC(=O)[C@H](CCCNC(=N)N)NC(=O)[C@H](C)NC(=O)[C@H](C)NC(=O)[C@H](CC(C)C)NC(=O)[C@H](CC(N)=O)NC(=O)[C@H](CC(=O)O)NC(=O)[C@H](CC(C)C)NC(=O)[C@@H](NC(=O)[C@@H](NC(=O)[C@H](CO)NC(=O)[C@H](Cc1ccc(O)cc1)NC(=O)[C@H](CC(=O)O)NC(=O)[C@H](CO)NC(=O)[C@@H](NC(=O)[C@H](Cc1ccccc1)NC(=O)[C@@H](NC(=O)CNC(=O)[C@H](CC(=O)O)NC(=O)[C@H](C)NC(=O)[C@@H](N)Cc1c[nH]cn1)[C@@H](C)O)[C@@H](C)CC)[C@@H](C)O)[C@@H](C)CC)[C@@H](C)CC)[C@@H](C)CC)[C@@H](C)O)C(=O)N[C@@H](CCCCN)C(=O)O [Co-agonist 36] | 100 | 71 |  |  | fold (fold change of native GIP), GIP receptor ([1]; Table 2): 8.9 fold; fold (fold change of native GLP-2), GLP-2 receptor ([2]; Table 2): 17 fold; EC50 [2, 3]: 20 nM
2 | HADGTFIDDYSTILDNLAARDFINWLIQTKITD [Co-agonist 14] | 94 | 90 | 27 | 9.2 | EC50 [1, 4]: 2.34 nM; EC50 [2, 5]: 10.7 nM
3 | HADGTFISDYSKILDNLAARDFINWLIQTKITK [Co-agonist 24] | 100 | 96 |  |  | fold (fold change of native GIP), GIP receptor ([1]; Table 2): 1.7 fold; EC50 [1, 6]: 0.151 nM; fold (fold change of native GLP-2), GLP-2 receptor ([2]; Table 2): 0.62 fold
4 | HADGTFISDYSTIKDNLAARDFINWLIQTKITK [Co-agonist 25] | 92 | 92 |  |  | fold (fold change of native GIP), GIP receptor ([1]; Table 2): 4.9 fold; fold (fold change of native GLP-2), GLP-2 receptor ([2]; Table 2): 2.9 fold; EC50 [2, 3]: 3.47 nM
5 | HADGTFISDYSTILDKLAARDFINWLIQTKITK [Co-agonist 26] | 100 | 100 |  |  | fold (fold change of native GIP), GIP receptor ([1]; Table 2): 0.34 fold; EC50 [1, 6]: 0.0302 nM; fold (fold change of native GLP-2), GLP-2 receptor ([2]; Table 2): 0.26 fold; EC50 [2, 3]: 0.309 nM
6 | HADGTFISDYSTILDNLAARDFINWLIQTKGKKNDWKHNITQ [Co-agonist 34] | 100 | 94 |  |  | EC50 [2, 3]: 1.15 nM
7 | HADGTFISDYSTILDNLAARDFINWLIQTKGTD [Co-agonist 16] | 95 | 74 | 6.7 | 68 | EC50 [2, 5]: 87.1 nM
8 | HADGTFISDYSTILDNLAARDFINWLIQTKIKD [Co-agonist 17] | 95 | 88 | 4.5 | 21 | EC50 [2, 5]: 24.5 nM
9 | HADGTFISDYSTILDNLKARDFINWLIQTKITK [Co-agonist 27] | 100 | 100 |  |  | fold (fold change of native GIP), GIP receptor ([1]; Table 2): 6.2 fold; fold (fold change of native GLP-2), GLP-2 receptor ([2]; Table 2): 0.47 fold
10 | HADGTFISEYSTILDNLAARDFINWLIQTKITD [Co-agonist 15] | 92 | 104 | 36 | 5.6 | EC50 [1, 4]: 3.16 nM
11 | HADGTFSSDYSTILDNLAAKDFINWLIQTKITD [Co-agonist 20] | 98 | 80 |  |  | 
12 | HADGTFSSDYSTILDNLAARDFINWLIQTKITD [Co-agonist 13] | 91 | 99 | 135 | 9.2 | EC50 [1, 4]: 12 nM; EC50 [2, 5]: 11.2 nM
13 | HAEGSFISDYSTILDNLAARDFINWLIQTKITD [Co-agonist 4] | 83 | 90 | 427 | 21 | EC50 [1, 4]: 38 nM; EC50 [2, 7]: 25 nM; EC50 [2, 5]: 25.7 nM
14 | HAEGTFISDMNTILDNLAARDFINWLIQTKITD [Co-agonist 6] | 83 | 70 | 1933 | 50 | 
15 | HAEGTFISDYSIAMDKLAARDFINWLIQTKITD [Co-agonist 7] | 92 | 78 | 292 | 293 | EC50 [1]: 25.7 nM
16 | HAEGTFISDYSTILDNIHQQDFINWLIQTKITD [Co-agonist 8] | 100 | 22 | 66 |  | EC50 [2]: > 10000 nM
17 | HAEGTFISDYSTILDNLAARDFINWLIQTKGKK [Co-agonist 10] | 100 | 77 | 61 | 18 | EC50 [2]: 21.9 nM
18 | HAEGTFISDYSTILDNLAARDFINWLIQTKITD [Co-agonist 1] |  |  | 337 | 82 | EC50 [1]: 29.5 nM; Emax at 1 µM [1]: 100%; Emax at 1 µM [2]: 93%
19 | HAEGTFISDYSTILDNLAARDFINWLIQTKITDNDWKHNITQ [Co-agonist 2] |  |  | 135 | 121 | EC50 [1]: 12 nM; Emax at 1 µM [1]: 100%; Emax at 1 µM [2]: 93%
20 | HAEGTFISDYSTILDNLAARDFVNWLLAQKITD [Co-agonist 9] | 100 | 67 | 36 | 103 | EC50 [1]: 3.16 nM
21 | HAEGTFSDEYSTILDNLAARDFINWLIQTKITD [Co-agonist 5] | 75 | 91 | 5124 | 5.2 | EC50 [2, 7]: 6.2 nM
22 | HGDGTFISDYSTILDNLAARDFINWLIQTKITD [Co-agonist 11] | 95 | 87 | 36 | 20 | EC50 [1, 4]: 3.16 nM; EC50 [2, 5]: 24 nM
